Laboratory results as given in ChEMBL document CHEMBL3804822 (Bioorg Med Chem, 2016).
The source made the active and inactive calls. No cut-off for these calls is given here.

Columns and labels:
Estrogen receptor [1] = biological target: T1, Estrogen receptor (Homo sapiens, UniProt P03372); experiment: Displacement of Fluormone ES2 from human recombinant full length untagged-ERalpha by fluorescence polarization competition binding assay
T1 sequence (P03372 whole entry): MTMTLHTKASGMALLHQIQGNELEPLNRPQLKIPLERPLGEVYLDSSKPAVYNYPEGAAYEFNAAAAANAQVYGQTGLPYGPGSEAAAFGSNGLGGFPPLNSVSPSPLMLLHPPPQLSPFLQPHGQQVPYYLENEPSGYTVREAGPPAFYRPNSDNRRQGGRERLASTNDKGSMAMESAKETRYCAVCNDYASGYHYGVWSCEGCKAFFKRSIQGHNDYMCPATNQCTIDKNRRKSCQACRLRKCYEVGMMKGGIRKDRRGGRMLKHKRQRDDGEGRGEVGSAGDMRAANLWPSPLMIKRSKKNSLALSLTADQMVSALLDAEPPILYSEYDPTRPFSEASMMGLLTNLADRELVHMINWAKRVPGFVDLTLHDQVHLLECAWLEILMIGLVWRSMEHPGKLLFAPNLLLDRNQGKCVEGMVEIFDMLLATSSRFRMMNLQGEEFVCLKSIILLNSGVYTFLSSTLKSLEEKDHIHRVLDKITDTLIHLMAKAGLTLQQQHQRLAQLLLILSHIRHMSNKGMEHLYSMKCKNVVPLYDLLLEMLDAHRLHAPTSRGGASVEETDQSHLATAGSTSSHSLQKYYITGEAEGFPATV

[2] = biological target: T2, Estrogen receptor (Homo sapiens) (UniProt P03372); experiment: Down regulation of ERalpha in human MCF7 cells after 6 hrs in presence of 10 uM proteasome inhibitor MG132 by Western blot analysis; type: cell-based
T2 sequence (whole entry): T1 sequence (P03372 whole entry)

[3] = biological target: T2, Estrogen receptor (Homo sapiens); experiment: Down regulation of ERalpha in human MCF7 cells at 10 uM after 6 hrs by Western blot analysis in absence of MG132
Estrogen receptor [4] = biological target: T1, Estrogen receptor; experiment: Antagonist activity at ERalpha (unknown origin) transfected in 17beta-estradiol induced-HEK293 cells assessed as inhibition of estradiol-mediated protein transcriptional activity after 16 to 20 hrs by Luciferase reporter gene assay

Row | SMILES | IC50 (Estrogen receptor [1]) | Activity [2] | Activity [3] | IC50 (Estrogen receptor [4])
1 | CCCCCCCCCCCCCCCCNCCOc1ccc(C(=O)c2c(-c3ccc(O)cc3)sc3cc(O)ccc23)cc1 | 11 nM |  |  | 
2 | CCCCCCCCCCCCNCCOc1ccc(C(=O)c2c(-c3ccc(O)cc3)sc3cc(O)ccc23)cc1 | 5.9 nM | inactive | Dose-dependent effect | 0.09 nM
3 | CCCCCCCCCCNCCOc1ccc(C(=O)c2c(-c3ccc(O)cc3)sc3cc(O)ccc23)cc1 | 40 nM | inactive | Dose-dependent effect | 0.68 nM

Continued by falling IC50 (Estrogen receptor [1]), values first:

Row | IC50 (Estrogen receptor [1]) | Activity [2] | Activity [3] | IC50 (Estrogen receptor [4]) | SMILES
4 | 61 nM |  |  |  | CCCCCCNCCOc1ccc(C(=O)c2c(-c3ccc(O)cc3)sc3cc(O)ccc23)cc1
5 | 49 nM |  |  |  | CCCCCCCCNCCOc1ccc(C(=O)c2c(-c3ccc(O)cc3)sc3cc(O)ccc23)cc1
6 | 28 nM |  |  |  | CCCCCCCCCCCCCCNCCOc1ccc(C(=O)c2c(-c3ccc(O)cc3)sc3cc(O)ccc23)cc1
7 | 1.8 nM |  |  |  | CCCCCCCCCCCCCCCCCCNCCOc1ccc(C(=O)c2c(-c3ccc(O)cc3)sc3cc(O)ccc23)cc1
